In experiment [1] the target is human catalytic domain HDAC4 protein (amino acids 648-1032) (Homo sapiens (Human), UniProt P56524). Put plainly: HDAC4 catalytic domain enzymatic activity, fluorogenic substrate Boc-Lys(TFA)-AMC. The note with it: read-out: HDAC4 Biochemical IC50. From the text: Example 25: Analysis of Inhibition of HDAC4 with Class IIa Histone Deacetylase (HDAC) Inhibitors
The potency of Class IIa Histone Deacetylase (HDAC) inhibitors was quantified by measuring the Histone Deacetylase 4 (HDAC4) catalytic domain enzymatic activity using the fluorogenic substrate, Boc-Lys(TFA)-AMC. The substrate was deacetylated to Boc-Lys-AMC by HDAC4. […] The fluorescence of the sample was directly related to the histone deacetylase activity in the sample.
(§1) Serially Dilute HDAC Inhibitor Compounds.
Serial dilutions of the HDAC inhibitors and control reference compound (1-(5-(3-((4-(1,3,4-oxadiazol-2-yl)phenoxy)methyl)-1,2,4-oxadiazol-5-yl)thiophen-2-yl)-2,2,2-trifluoroethanone) were made by first resuspending the lyophilized compound to a final concentration of 10 mM in 100% dimethyl sulfoxide (DMSO). Stocks of 60 μL aliquots of the 10 mM compound in DMSO were prepared and stored at −20° C. From one stock aliquot of each tested compound and the reference compound, a 16-point serial dilution was prepared according to Table 1 using a 125 μL 16-channel Matrix multi-channel pipette (Matrix Technologies Ltd).
2 μL (200×) of each diluted solution and each control (full activity: 100% DMSO alone or full inhibition 1 mM) was stamped into V-bottomed polypropylene 384-well compound plates using either the Bravo (384-well head from Agilent) or 12.5 μL 16-channel Matrix multi-channel pipette (Matrix Technologies Ltd). Each well with the 200× compound solution was diluted 1:20 by the addition of 38 μL assay buffer+DMSO (10.5% DMSO, 45 mM Tris-HCl, 123 mM NaCl, 2.4 mM KCl, and 0.9 mM MgCl2 at pH 8.0 and equilibrated to r.t.).
Prepare HDAC4 Catalytic Domain Enzyme (0.2 μg/mL).
The HDAC4 catalytic domain enzyme was human catalytic domain HDAC4 protein (amino acids 648-1032) with a C-terminal 6× histidine tag, produced by BioFocus. A working solution of enzyme was prepared from a […] stock aliquot of HDAC4 catalytic domain (thawed on ice) diluted to 0.2 μg/mL with assay buffer (50 mM Tris-HCl, 137 mM NaCl, 2.7 mM KCl, and 1 mM MgCl2 at pH 8 and equilibrated to r.t.) just prior to the addition of the enzyme to the assay.
Prepare 5× (50 μM) Boc-Lys(TFA)-AMC Substrate.
5× (50 μM) substrate was prepared just prior to the addition to the assay. A 1 mM substrate stock was made by diluting a 100 mM Boc-Lys(TFA)-AMC in DMSO solution 1:100 by adding it drop-wise to assay buffer (equilibrated to r.t.) while vortexing at slow speed to prevent precipitation. The 5× substrate was prepared by diluting the 1 mM substrate solution 1:20 by adding it drop-wise to assay buffer (equilibrated to r.t.) while vortexing at slow speed to prevent precipitation.
Prepare 3× (30 μM) Developer/Stop Solution.
3× (30 μM) Developer/Stop Solution was prepared just prior to addition to the plate by diluting a stock solution of 10 mM reference compound 1:333 in 25 mg/mL trypsin (PAA Laboratories Ltd.) equilibrated to r.t.
5 μL of each solution of 1:20 diluted compound from above was transferred to a clear bottomed, black, 384-well assay plate using the Bravo or the Janus (384-well MDT head from Perkin Elmer). Using a 16-channel Matrix multi-channel pipette, 35 μL of the working solution of HDAC4 catalytic domain enzyme (0.2 μg/mL in assay buffer) was transferred to the assay plate. The assay was then started by adding 10 μL of 5× (50 μM) substrate to the assay plates using either the Bravo, Janus or 16-channel Matrix multi-channel pipette. The assay plate was then shaken for two minutes on an orbital shaker at 900 rpm (rotations per minute). Next the plate was incubated for 15 minutes at 37° C. The reaction was stopped by adding 25 μL of 3× (30 μM) developer/stop solution to the assay plates using either the Bravo, Janus or a 16-channel Matrix multi-channel pipette. Assay plates were then shaken for 5 minutes on an orbital shaker at 1200 rpm. Next, the assay plates were incubated at 37° C. for 1 hour in a tissue culture incubator. […]

The test system of experiment [2] is Cellular Class IIa HDAC activity. Put plainly: Inhibition of cellular Class IIa HDAC activity; Cell (Lys-TFA) substrate, Jurkat E6-1 cells. The class given is cell-based. Particulars: Boc-Lys(TFA)-AMC substrate.
Excerpt: Example 29: Analysis of Inhibition of Cellular Class IIa HDAC Activity with Class IIa Histone Deacetylase (HDAC) Inhibitors; Cell (Lys-TFA) Substrate
(§2) The potency of Class IIa Histone Deacetylase (HDAC) inhibitors was quantified by measuring the cellular histone deacetylase enzymatic activity using the fluorogenic substrate, Boc-Lys(TFA)-AMC. After penetration in Jurkat E6-1 cells, the substrate was deacetylated to Boc-Lys-AMC. After cell lysis and cleavage by trypsin, the fluorophore AMC was released from the deacetylated substrate only. The fluorescence of the sample was directly related to the histone deacetylase activity in the sample.
Jurkat E6.1 Cell Culture and Plating.
(§3) Jurkat E6.1 cells were cultured according to standard cell culture protocols in Jurkat E6.1 Growth Media (RPMI without phenol red, 10% FBS, 10 mM HEPES, and 1 mM Sodium Pyruvate). Jurkat E6.1 cells were counted using a Coulter Counter and resuspended in Jurkat E6.1 growth media at a concentration of 75,000 cells/35 μL. 35 μL or 75,000 cells was seeded into Greiner microtitre assay plates. The plates were then incubated at 37° C. and 5% CO2 while other assay components were being prepared.
as §1
(§4) Serial dilutions of the HDAC inhibitors and control reference compound (1-(5-(3-((4-(1,3,4-oxadiazol-2-yl)phenoxy)methyl)-1,2,4-oxadiazol-5-yl)thiophen-2-yl)-2,2,2-trifluoroethanone) were made by first resuspending the lyophilized compound to a final concentration of 10 mM in 100% DMSO. Stocks of 70 μL aliquots of the 10 mM compound in DMSO were prepared and stored at −20° C. From one stock aliquot of each tested compound and the reference compound, a 16-point serial dilution was prepared according to Table 1 using a 125 μL 16-channel Matrix multi-channel pipette.
(§5) 2 μL (200×) of each diluted solution and each control (full activity: 100% DMSO alone or full inhibition 1 mM) was stamped into V-bottom polypropylene 384-well compound plates using either the Bravo, Janus, or 12.5 μL 16-channel Matrix multi-channel pipette. Each well with the 200× compound solution was diluted 1:20 by the addition of 38 μL Jurkat assay buffer+DMSO (9.5% DMSO, RPMI without phenol red, 0.09% FBS, 9 mM Hepes, and 0.9 mM Sodium Pyruvate equilibrated to r.t.)
Prepare 5× (500 μM) Boc-Lys(TFA)-AMC Substrate.
(§6) 5× (500 μM) substrate was prepared just prior to the addition to the assay. The 5× substrate was prepared by diluting a 100 mM Boc-Lys(TFA)-AMC in DMSO solution 1:200 by adding it drop-wise to Jurkat assay medium (RPMI without phenol red, 0.1% FBS, 10 mM Hepes, and 1 mM Sodium Pyruvate equilibrated to 37° C.) while vortexing at slow speed to prevent precipitation.
(§7) 10 mL of 3× lysis buffer was prepared with 8.8 mL of 3× stock lysis buffer (50 mM Tris-HCl, pH 8.0, 137 mM NaCl, 2.7 mM KCl, 1 mM MgCl2, 1% Nonidet P40 Substitute equilibrated to r.t.) and 1.2 mL of 3 mg/mL Trypsin equilibrated to r.t.
(§8) 5 μL of each solution of 1:20 diluted compound from above was transferred to the Greiner microtitre assay plates with 75,000 cells/well using the Bravo. Cells were then incubated for 2 hours at 37° C. and 5% CO2. The assay was then started by adding 10 μL of 5× (500 μM) substrate to the assay plate using either the Bravo or 16-channel Matrix multi-channel pipette. The cells were then incubated for 3 hours at 37° C. and 5% CO2. Next, 25 μL of 3× lysis buffer was added to each well using either the 125 μL 16 channel pipette or the Bravo. The assay plate was then incubated overnight (15-16 hours) at 37° C. and 5% CO2. The following day, the plates were shaken on an orbital shaker for 1 minute at 900 rpm. Finally the top read fluorescence (Excitation: 355 nm, Emission: 460 nm) was measured using PerkinElmer EnVision.

For experiment [3], the system named is Cellular Class I HDAC activity. Put plainly: Inhibition of cellular Class I HDAC activity; Cell (Lys-Ac) substrate, Jurkat E6-1 cells. It counts as cell-based. Particulars: Boc-Lys(Ac)-AMC substrate.
Excerpt: as §2, §3, §4, §5, §6, §7, §8
Example 30: Analysis of Inhibition of Cellular Class I HDAC Activity with Class IIa Histone Deacetylase (HDAC) Inhibitors; Cell (Lys-Ac) Substrate
The Class I HDAC activity of Class IIa Histone Deacetylase (HDAC) inhibitors was quantified by measuring the cellular histone deacetylase enzymatic activity using the fluorogenic substrate, Boc-Lys(Ac)-AMC. This was performed according to the procedure in Example 29, using Boc-Lys(Ac)-AMC substrate in place of Boc-Lys(TFA)-AMC.

Structures can show the parent of a compound that is named as a salt.

Sequence of human catalytic domain HDAC4 protein (amino acids 648-1032) (P56524 648-1032): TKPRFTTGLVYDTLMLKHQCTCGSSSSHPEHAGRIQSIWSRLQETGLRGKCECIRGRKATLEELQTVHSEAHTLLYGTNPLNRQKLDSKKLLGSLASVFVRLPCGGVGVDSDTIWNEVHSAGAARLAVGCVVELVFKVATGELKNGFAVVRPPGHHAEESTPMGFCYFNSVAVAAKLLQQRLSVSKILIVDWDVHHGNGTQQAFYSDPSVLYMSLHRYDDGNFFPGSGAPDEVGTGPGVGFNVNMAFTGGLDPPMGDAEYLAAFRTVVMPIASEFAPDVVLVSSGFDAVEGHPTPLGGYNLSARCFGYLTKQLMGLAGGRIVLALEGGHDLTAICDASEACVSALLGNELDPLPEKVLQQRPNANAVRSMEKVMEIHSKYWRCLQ

In general, IC50 refers to the point on the concentration scale where inhibition reaches its midpoint. As to `C[C@H](CN1CCCC(OC(F)F)C1)NC(=O)c1ccc(-c2noc(C(F)(F)F)n2)cc1` (single isomer, unassigned) [Example 9], the results for the IC50 in experiment [1], in experiment [2] and in experiment [3] were 0.021 µM, 0.057 µM and 3.7 µM, respectively.
As to `C[C@H](CN1CCCC(OC(F)F)C1)NC(=O)c1ccc(-c2noc(C(F)(F)F)n2)cc1` (single isomer, unassigned) [Example 10], the IC50 in experiment [1] came out at 0.003 µM; in experiment [2], 0.007 µM; in experiment [3], 1.5 µM.
With `C[C@H](CN1CC2CCCC21)NC(=O)c1ccc(-c2noc(C(F)(F)F)n2)cc1` (single isomer, unassigned) [Example 20], the IC50 came to 0.022 µM in experiment [1], 0.15 µM in experiment [2] and 7.8 µM in experiment [3].
For the compound `C[C@H](CN1CC2CCCC21)NC(=O)c1ccc(-c2noc(C(F)(F)F)n2)cc1` (single isomer, unassigned) [Example 21], the IC50 came to 0.004 µM in experiment [1], 0.016 µM in experiment [2] and 3.1 µM in experiment [3].
Regarding `Cc1cc(C(=O)N[C@H](C)CN2CCC[C@@H]2C)ccc1-c1noc(C(F)(F)F)n1` [Example 1, (2S)-2-Methyl-1-((R)-2-(3-methyl-4-(5-(trifluoromethyl)-1,2,4-oxadiazol-3-yl)benzamido)propyl)pyrrolidin-1-ium formate], the IC50 is 0.1 µM in experiment [1], 1.6 µM in experiment [2] and over 50 µM in experiment [3].
For `O=C(NCCN1CC2CCC(C2)C1)c1ccc(-c2noc(C(F)(F)F)n2)cc1` [Example 2, N-(2-(3-Azabicyclo[3.2.1]octan-3-yl)ethyl)-4-(5-(trifluoromethyl)-1,2,4-oxadiazol-3-yl)benzamide], the IC50 came to 0.14 µM in experiment [1], 0.33 µM in experiment [2] and 4.9 µM in experiment [3].
Taken in the same sequence, the figures for `C[C@H](CN1Cc2ccccc2C1)NC(=O)c1ccc(-c2noc(C(F)(F)F)n2)cc1` [Example 3, (R)—N-(1-(Isoindolin-2-yl)propan-2-yl)-4-(5-(trifluoromethyl)-1,2,4-oxadiazol-3-yl)benzamide] were 0.039 µM, 0.14 µM and 4.9 µM.
Turning to `C[C@H](CN1CC2CC2C1)NC(=O)c1ccc(-c2noc(C(F)(F)F)n2)cc1` (stereo partly drawn) [Example 4, N-((2R)-1-(3-Azabicyclo[3.1.0]hexan-3-yl)propan-2-yl)-4-(5-(trifluoromethyl)-1,2,4-oxadiazol-3-yl)benzamide], the IC50 in experiment [1] came to 0.008 µM; in experiment [2], 0.051 µM; in experiment [3] it was 6.9 µM.
Taken in the same sequence, the figures for `O=C(N[C@H](CN1CCCC1)C1CC1)c1ccc(-c2noc(C(F)(F)F)n2)cc1` [Example 5, (S)—N-(1-Cyclopropyl-2-(pyrrolidin-1-yl)ethyl)-4-(5-(trifluoromethyl)-1,2,4-oxadiazol-3-yl)benzamide] were 0.048 µM, 0.71 µM and 25.7 µM.
With `O=C(N[C@@H](CN1CCCC1)C1CC1)c1ccc(-c2noc(C(F)(F)F)n2)cc1` [Example 6, (R)—N-(1-Cyclopropyl-2-(pyrrolidin-1-yl)ethyl)-4-(5-(trifluoromethyl)-1,2,4-oxadiazol-3-yl)benzamide], the IC50 in experiment [1] is 0.077 µM; in experiment [2], 0.75 µM; in experiment [3], over 50 µM.
Regarding `C[C@H](CN1CCc2ccccc2C1)NC(=O)c1ccc(-c2noc(C(F)(F)F)n2)cc1` [Example 7, (R)—N-(1-(3,4-Dihydroisoquinolin-2(1H)-yl)propan-2-yl)-4-(5-(trifluoromethyl)-1,2,4-oxadiazol-3-yl)benzamide], the IC50 in experiment [1] amounted to 0.009 µM; in experiment [2], 0.018 µM; in experiment [3], 2.4 µM.
Turning to `C[C@H](CN1CC(c2ccccc2)C1)NC(=O)c1ccc(-c2noc(C(F)(F)F)n2)cc1` [Example 8, (R)—N-(1-(3-Phenylazetidin-1-yl)propan-2-yl)-4-(5-(trifluoromethyl)-1,2,4-oxadiazol-3-yl)benzamide], the figures for the IC50 in experiment [1], in experiment [2] and in experiment [3] were 0.014 µM, 0.039 µM and 0.71 µM, respectively.

The values are drawn from US10053434B2, “Histone deacetylase inhibitors and compositions and methods of use thereof” (CHDI Foundation, Inc., priority 2015, dated 2018).
